Columns and labels:
[1] = test system: HT-1080-FAP cells; test: internalization experiments in HT-1080-FAP cells; type: cell-based, human; settings: 10 min
Protocol: (§1) The human fibrosarcoma cell lines HT-1080 and HT-1080-FAP transferred with human FAP gene were both cultured in Dulbecco modified Eagle medium supplemented with 10% fetal bovine serum (Gibco, USA) at 37℃/5% carbon dioxide. For cell uptake experiments, HT-1080-FAP cells (~ 1 × 10^5/well) or HT-1080 (~ 1 × 10^5/well) were seeded in 24-well plates for 24–48 h and incubated at 37℃ with radiolabeled compounds (74 kBq/well) in 0.5 mL of serum-free medium for indicated times. Non-specific binding was determined by co-incubating with 100 μM FAP inhibitor UAMC1110. For competitive FAP binding assays, HT-1080-FAP cells were incubated with [^177Lu]Lu-FAPI-04 (74 kBq/well) in the presence of different concentrations (10^−3–10^4 nM) of competing non-radioactive ligands. For internalization experiments, the radiotracer-incubated cells were washed twice with PBS (pH 7.4), followed by glycine–HCl (0,05 M, pH = 2.8) solution to distinguish between cell surface–bound (acid-releasable) and internalized (acid-resistant) radioligand. For efflux experiments, cells were preincubated with [^177Lu]21 or [^177Lu]Lu-FAPI-04 for 1 h and subsequently incubated at 37 °C in a medium free of radiotracer and serum for different time periods. […] Cell lysates were collected and the radioactivity was determined using a γ-counter.

[2] = test system: HT-1080-FAP tumor-bearing mice; test: biodistribution in HT-1080-FAP tumor-bearing mice; type: in vivo, BALB/C-nu/nu mice; settings: i.v.
Protocol: (§2) All animal experiments were conducted in compliance with a protocol approved by the First Affiliated Hospital of Sun Yat-sen University Institutional Animal Care and Use Committee. BALB/C-nu/nu mice (4–5-week old with body weight of 16–22 g) were purchased from GemPharmatech Co., Ltd. Mice were housed under standard conditions with temperature and light control (12-h-light/12-h-dark cycle) and had free access to water and food. For the tumor model, HT-1080-FAP or HT-1080 cells (5 × 10^6) were subcutaneously injected into the right or left flank of nude mice, respectively. As the tumor diameter reached 3–4 mm, mice were treated with radioligands. Micro-PET and SPECT imaging studies, as well as biodistribution, were conducted when the tumor diameter reached 5–10 mm.
[^177Lu]21 (~ 0.925 MBq) was injected via the tail vein of HT-1080-FAP tumor-bearing mice. The animals were sacrificed at 4, 24, 48 and 96 h pi. Organs of interest were dissected, weighed and counted with a γ-counter. The data were normalized to percentage injected dose (%ID/g) with standard dilution of the initial dose. The biodistribution of [^177Lu]Lu-FAPI-04 was conducted at 24 h pi for comparison.

[3] = test system: HT-1080-FAP cells; test: efflux experiments in HT-1080-FAP cells; type: cell-based, human; settings: preincubated 1 h, up to 4 h
Protocol: as §1

[4] = test system: HT-1080-FAP xenografts; test: radionuclide treatment of HT-1080-FAP xenografts; type: in vivo, BALB/C-nu/nu mice
Protocol: as §2
Radionuclide therapy was performed when the diameter of HT-1080-FAP xenografts reached 3–4 mm. The mice were randomly divided into 4 groups (n = 4) and intravenously injected with [^177Lu]21 (24.05 MBq), [^177Lu]21 (9.25 MBq), [^177Lu]Lu-FAPI-04 (24.05 MBq) and saline, respectively. Tumor volume (volume = length × width^2/2) and mouse weight were measured every 2–3 d. Endpoint criteria were defined as weight loss of more than 15%, tumor volume greater than 1500 mm^3, or active ulcerations of the tumor. […]

With `CC(C)(C)[Si](F)(c1ccc(C(=O)NCC(NC(=O)CCC(C(=O)O)N2CCN(CC(=O)[O-])CCN(CC(=O)[O-])CCN(CC(=O)[O-])CC2)C(=O)NCC2CCC(C(=O)NCCCOc3ccc4nccc(C(=O)NCC(=O)N5CC(F)(F)CC5C#N)c4c3)CC2)cc1)C(C)(C)C.[177Lu+3]` (stereo not drawn) [[^177Lu]21] the internalization rate [1] was > 80%, the “Tumor/ Kidney ratio” value ([2]; 4 h pi) was 2.15 ± 0.55 and the Tumor/Blood ratio ([2]; 4 h pi) was 2.63 ± 0.23. For the same compound, the Tumor/Liver ratio ([2]; 4 h pi) was 3.98 ± 1.00, the Tumor/Muscle ratio ([2]; 4 h pi) was 6.36 ± 0.27 and the “uptake in HT-1080-FAP tumor” value ([2]; 4 h pi) was 9.82 ± 1.35 %ID/g. It also gave an uptake in blood ([2]; 4 h pi) of 3.73 ± 0.36 %ID/g, an uptake in bone ([2]; 4 h pi) of 6.76 ± 0.51 %ID/g and an uptake in brain ([2]; 4 h pi) of 0.14 ± 0.01 %ID/g. For the same compound, the uptake in heart ([2]; 4 h pi) was 1.97 ± 0.09 %ID/g, the uptake in intestine ([2]; 4 h pi) was 2.12 ± 0.5 %ID/g and the uptake in kidney ([2]; 4 h pi) was 4.70 ± 0.89 %ID/g. The uptake in liver ([2]; 4 h pi) was 2.56 ± 0.57 %ID/g, the uptake in lung ([2]; 4 h pi) was 3.33 ± 0.97 %ID/g and the uptake in muscle ([2]; 4 h pi) was 1.54 ± 0.14 %ID/g. The uptake in pancreas ([2]; 4 h pi) was 4.03 ± 0.93 %ID/g, the uptake in skin ([2]; 4 h pi) was 3.60 ± 0.56 %ID/g and the uptake in spleen ([2]; 4 h pi) was 1.53 ± 0.25 %ID/g. The uptake in stomach ([2]; 4 h pi) was 1.80 ± 0.52 %ID/g, the “Tumor/ Kidney ratio” value ([2]; 24 h pi) was 1.73 ± 0.32 and the Tumor/Blood ratio ([2]; 24 h pi) was 13.77 ± 4.99. For the same compound, the Tumor/Liver ratio ([2]; 24 h pi) was 1.84 ± 0.41, the Tumor/Muscle ratio ([2]; 24 h pi) was 7.03 ± 1.39 and the “uptake in HT-1080-FAP tumor” value ([2]; 24 h pi) was 2.98 ± 0.98 %ID/g. The uptake in blood ([2]; 24 h pi) was 0.22 ± 0.03 %ID/g, the uptake in bone ([2]; 24 h pi) was 2.46 ± 0.74 %ID/g and the uptake in brain ([2]; 24 h pi) was 0.02 ± 0.00 %ID/g. It also gave an uptake in heart ([2]; 24 h pi) of 0.61 ±0.43 %ID/g, an uptake in intestine ([2]; 24 h pi) of 0.37 ± 0.03 %ID/g and an uptake in kidney ([2]; 24 h pi) of 1.72 ± 0.45 %ID/g. It also gave an uptake in liver ([2]; 24 h pi) of 1.63 ± 0.44 %ID/g, an uptake in lung ([2]; 24 h pi) of 0.46 ± 0.11 %ID/g and an uptake in muscle ([2]; 24 h pi) of 0.42 ± 0.09 %ID/g. For the same compound, the uptake in pancreas ([2]; 24 h pi) was 0.69 ± 0.14 %ID/g, the uptake in skin ([2]; 24 h pi) was 1.07 ± 0.32 %ID/g and the uptake in spleen ([2]; 24 h pi) was 0.69 ± 0.13 %ID/g. For the same compound, the uptake in stomach ([2]; 24 h pi) was 0.39 ± 0.11 %ID/g, the “Tumor/ Kidney ratio” value ([2]; 48 h pi) was 1.60 ± 0.19 and the Tumor/Blood ratio ([2]; 48 h pi) was 56.58 ± 6.63. The Tumor/Liver ratio ([2]; 48 h pi) was 3.66 ± 0.52, the Tumor/Muscle ratio ([2]; 48 h pi) was 11.31 ± 1.41 and the “uptake in HT-1080-FAP tumor” value ([2]; 48 h pi) was 2.43 ± 0.04 %ID/g. For the same compound, the uptake in blood ([2]; 48 h pi) was 0.04 ± 0.01 %ID/g, the uptake in bone ([2]; 48 h pi) was 3.09 ± 0.86 %ID/g and the uptake in heart ([2]; 48 h pi) was 0.27 ± 0.05 %ID/g. The uptake in intestine ([2]; 48 h pi) was 0.12 ± 0.02 %ID/g, the uptake in kidney ([2]; 48 h pi) was 1.53 ± 0.21 %ID/g and the uptake in liver ([2]; 48 h pi) was 0.67 ± 0.11 %ID/g. For the same compound, the uptake in lung ([2]; 48 h pi) was 0.53 ± 0.4 %ID/g, the uptake in muscle ([2]; 48 h pi) was 0.22 ± 0.03 %ID/g and the uptake in pancreas ([2]; 48 h pi) was 0.35 ± 0.04 %ID/g. For the same compound, the uptake in skin ([2]; 48 h pi) was 0.58 ± 0.09 %ID/g, the uptake in spleen ([2]; 48 h pi) was 0.81 ± 0.18 %ID/g and the uptake in stomach ([2]; 48 h pi) was 0.32 ± 0.04 %ID/g. The “Tumor/ Kidney ratio” value ([2]; 96 h pi) was 1.11 ± 0.04, the Tumor/Blood ratio ([2]; 96 h pi) was 102.33 ± 11.24 and the Tumor/Liver ratio ([2]; 96 h pi) was 0.93 ± 0.01. The Tumor/Muscle ratio ([2]; 96 h pi) was 9.0 ± 1.35, the “uptake in HT-1080-FAP tumor” value ([2]; 96 h pi) was 1.02 ± 0.11 %ID/g and the uptake in blood ([2]; 96 h pi) was 0.01 ± 0.00 %ID/g. It also gave an uptake in bone ([2]; 96 h pi) of 3.02 ± 0.69 %ID/g, an uptake in brain ([2]; 96 h pi) of 0.01 ± 0.00 %ID/g and an uptake in heart ([2]; 96 h pi) of 0.16 ± 0.03 %ID/g. The uptake in intestine ([2]; 96 h pi) was 0.11 ± 0.01 %ID/g, the uptake in kidney ([2]; 96 h pi) was 0.92 ± 0.13 %ID/g and the uptake in liver ([2]; 96 h pi) was 1.10 ± 0.12 %ID/g. For the same compound, the uptake in lung ([2]; 96 h pi) was 0.57 ± 0.34 %ID/g, the uptake in muscle ([2]; 96 h pi) was 0.12 ± 0.03 %ID/g and the uptake in pancreas ([2]; 96 h pi) was 0.15 ± 0.03 %ID/g. The uptake in skin ([2]; 96 h pi) was 0.35 ± 0.05 %ID/g, the uptake in spleen ([2]; 96 h pi) was 0.43 ± 0.07 %ID/g and the uptake in stomach ([2]; 96 h pi) was 0.20 ± 0.01 %ID/g. The efflux [3] was “slower excretion up to 4 h than [^177Lu]Lu-FAPI-04”, the “suppression of tumor growth versus control” value ([4]; 9.25 MBq i.v.) was “no statistically significant difference in comparison to control” and the “average relative tumor volume” value ([4]; 24.05 MBq i.v., end of study) was 4.55.

— PMC10250256, “A radiohybrid theranostics ligand labeled with fluorine-18 and lutetium-177 for fibroblast activation protein-targeted imaging and radionuclide therapy” (European Journal of Nuclear Medicine and Molecular Imaging, 2023)
